According to PubChem BioAssay (NCI):
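All cell lines were grown in 96-well plates and treated with compound for 48 hours. GI50 is the concentration that inhibits growth by half. At the TGI there is no net growth.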

How the values were obtained:
Experiment in all cases: NCI tumour cell line growth inhibition, 48 h
[1] = tested on: TK-10 renal
[2] = tested on: NCI-H522 lung
[3] = tested on: ACHN renal
[4] = tested on: SN12C renal
[5] = tested on: HCT-15 colon
[6] = tested on: SK-MEL-5 melanoma
[7] = tested on: OVCAR-3 ovarian
[8] = tested on: NCI-H460 lung
[9] = tested on: SF-295 CNS
[10] = tested on: SR leukemia

Row | Compound | GI50 [1] | TGI [1] | GI50 [2] | TGI [2] | GI50 [3] | TGI [3] | GI50 [4] | TGI [4] | GI50 [5] | TGI [5] | GI50 [6] | TGI [6] | GI50 [7] | TGI [7] | GI50 [8] | TGI [8] | TGI [9] | TGI [10] | GI50 [9]
1 | CCC[CH2][Sn]([CH2]CCC)([O]C(=O)C(N)CSC)[O]C(=O)C(N)CSC (stereo unspecified) | 9.03 µM | 21.5 µM | 1.34 µM | 3.39 µM | 12.3 µM | 30.2 µM | 8.82 µM | 23.4 µM | 11.6 µM | 25.4 µM | 11.6 µM | 25 µM | 12.5 µM | 25.4 µM | 29.7 µM | 90.1 µM | – | – | –
2 | O=C1NC(=S)NC(=O)C1=Cc1cccc2cc3ccccc3cc12 | – | 3.48 µM | – | 4.36 µM | – | 3.51 µM | – | 4.9 µM | – | 4.07 µM | – | 5.23 µM | – | 3.42 µM | – | 4.82 µM | 7.19 µM | > 20 µM | –
3 | C=C(C)CN(CC#N)CC(=C)C | – | > 100 µM | – | > 100 µM | – | > 100 µM | – | > 100 µM | – | > 100 µM | – | > 100 µM | – | > 100 µM | – | – | > 100 µM | > 100 µM | –
4 | CCCCc1ccc(-n2c3nc(=O)n(C)c(=O)c-3nc3ccccc32)cc1 | – | 27.5 µM | – | 20.2 µM | – | 23.1 µM | – | 20.9 µM | – | 18.3 µM | – | 3.01 µM | – | 10.1 µM | – | 16.6 µM | 23.1 µM | – | –
5 | C1CCN(C2OC3C(COC3N3CCCCC3)OC2OC2CCO[C@@H]2N2CCCCC2)CC1 (stereo partly specified) | – | > 100 µM | – | 25.8 µM | – | > 100 µM | – | > 100 µM | – | > 100 µM | – | > 100 µM | – | 89.3 µM | – | > 100 µM | > 100 µM | – | –
6 | Cc1cc(C)nc(NS(=O)(=O)c2ccc(Nc3c4ccc(Cl)cc4nc4c(C(=O)Nc5ccc(S(=O)(=O)N=C(N)N)cc5)cccc34)cc2)n1 | – | > 100 µM | – | > 100 µM | – | > 100 µM | – | > 100 µM | – | > 100 µM | – | – | – | > 100 µM | – | > 100 µM | > 100 µM | – | –
7 | COc1ccc2c(c1)CCc1[nH]c3ccccc3c1CCCC2 | – | > 10 µM | – | > 10 µM | – | > 10 µM | – | > 10 µM | – | > 10 µM | – | > 10 µM | – | > 10 µM | – | – | > 10 µM | > 10 µM | –
8 | Nc1ncn(C2C=C(CO)C(O)C2O)c(=O)n1 (stereo unspecified) | – | > 100 µM | – | > 100 µM | – | > 100 µM | – | > 100 µM | – | > 100 µM | – | > 100 µM | – | > 100 µM | – | > 100 µM | – | > 100 µM | –
9 | CC[O-].CC[O-].O=C1C(c2ccccc2)=C([O-])c2ccccc21.O=C1C(c2ccccc2)=C([O-])c2ccccc21.[Ti+4] | – | – | > 100 µM | > 100 µM | > 100 µM | > 100 µM | > 100 µM | > 100 µM | > 100 µM | > 100 µM | > 100 µM | > 100 µM | > 100 µM | > 100 µM | > 100 µM | > 100 µM | > 100 µM | – | > 100 µM
10 | Cc1cc2cc3c(C)cc(=O)oc3c(C)c2o1 | – | – | – | > 100 µM | – | > 100 µM | – | > 100 µM | – | > 100 µM | – | > 100 µM | – | > 100 µM | – | > 100 µM | > 100 µM | > 100 µM | –
11 | O=c1[nH]c2c3ccccc3ccc2c2cc3c(cc12)OCO3 | – | > 100 µM | – | > 100 µM | – | > 100 µM | – | > 100 µM | – | > 100 µM | – | > 100 µM | – | > 100 µM | – | > 100 µM | > 100 µM | – | –
12 | O=C(Nc1ccc(F)cc1)C(=O)C(C1OC(=O)c2ccccc21)[N+](=O)[O-] (stereo unspecified) | – | > 100 µM | – | – | – | > 100 µM | – | – | – | > 100 µM | – | > 100 µM | – | > 100 µM | – | > 100 µM | > 100 µM | > 100 µM | –
13 | O=C([O][Hg][CH2]C1COCC([CH2][Hg][O]C(=O)c2ccccc2)O1)c1ccccc1 (stereo unspecified) | 6.33 µM | 31.5 µM | – | – | 1.91 µM | 3.71 µM | 7.68 µM | 32.2 µM | – | – | 11.9 µM | 24.6 µM | 1.58 µM | 2.93 µM | 20 µM | 42.5 µM | 35.7 µM | – | 17.3 µM
14 | CCCC(C)C[C@@H](C)CC(C)/C=C(\C)c1oc(=O)c(C)c(O)c1C (stereo partly specified) (tested in a mixture with another compound) | – | 33.7 µM | – | 31.1 µM | – | 17.9 µM | – | 29.1 µM | – | – | – | – | – | 18.9 µM | – | 25.1 µM | 25.9 µM | – | –
15 | CCc1nc(N)nc(C(=O)NCCNC(=O)c2nc(N)nc(CC)c2C)c1C | – | > 100 µM | – | – | – | > 100 µM | – | > 100 µM | – | > 100 µM | – | > 100 µM | – | > 100 µM | – | > 100 µM | > 100 µM | – | –
16 | CSc1nc(NC(=O)O)c(N(C(C)=O)C(=O)O)c(=O)n1C | – | – | – | – | – | > 100 µM | – | > 100 µM | – | > 100 µM | – | > 100 µM | – | > 100 µM | – | > 100 µM | > 100 µM | – | –
17 | Cc1ccc(/C=C/C(=O)c2sc(-c3cccnc3)nc2C)cc1 | – | > 100 µM | – | > 100 µM | – | > 100 µM | – | > 100 µM | – | > 100 µM | – | > 100 µM | – | > 100 µM | – | > 100 µM | > 100 µM | – | –
18 | COc1ccc2cc3[n+](cc2c1OC)CCc1cc(O)c(O)cc1-3 | – | > 100 µM | – | > 100 µM | – | – | – | > 100 µM | – | > 100 µM | – | > 100 µM | – | > 100 µM | – | > 100 µM | > 100 µM | – | –
19 | Cc1ccc(-c2nc(N)nc3c2nnn3Cc2cccc(CO[C@H]3CCOC3)n2)o1 | > 100 µM | > 100 µM | > 100 µM | > 100 µM | > 100 µM | > 100 µM | > 100 µM | > 100 µM | > 100 µM | > 100 µM | 53.6 µM | > 100 µM | > 100 µM | > 100 µM | > 100 µM | > 100 µM | > 100 µM | – | > 100 µM
20 | COc1cc(C(=O)C/C(CCC(=O)Nc2ccc(Cl)cc2C)=N/NC(=O)C(N)=O)ccc1O | – | > 100 µM | – | > 100 µM | – | > 100 µM | – | > 100 µM | – | > 100 µM | – | > 100 µM | – | > 100 µM | – | > 100 µM | > 100 µM | – | –
